Results reported in paper PMC13329992, “Catalytic Promiscuity Underpins Metabolic Resistance to Auxinic Herbicides in Echinochloa phyllopogon” (Journal of Agricultural and Food Chemistry, 2026).

Target: T1, CYP81A24 (Echinochloa phyllopogon, UniProt R4WC97)
T1 construct: expressed in E. coli C41(DE3) from pET28 with co-expressed Arabidopsis ATR2 reductase (pCDF, with HemA) and pGro7 chaperonin
T1 sequence (R4WC97 1-515): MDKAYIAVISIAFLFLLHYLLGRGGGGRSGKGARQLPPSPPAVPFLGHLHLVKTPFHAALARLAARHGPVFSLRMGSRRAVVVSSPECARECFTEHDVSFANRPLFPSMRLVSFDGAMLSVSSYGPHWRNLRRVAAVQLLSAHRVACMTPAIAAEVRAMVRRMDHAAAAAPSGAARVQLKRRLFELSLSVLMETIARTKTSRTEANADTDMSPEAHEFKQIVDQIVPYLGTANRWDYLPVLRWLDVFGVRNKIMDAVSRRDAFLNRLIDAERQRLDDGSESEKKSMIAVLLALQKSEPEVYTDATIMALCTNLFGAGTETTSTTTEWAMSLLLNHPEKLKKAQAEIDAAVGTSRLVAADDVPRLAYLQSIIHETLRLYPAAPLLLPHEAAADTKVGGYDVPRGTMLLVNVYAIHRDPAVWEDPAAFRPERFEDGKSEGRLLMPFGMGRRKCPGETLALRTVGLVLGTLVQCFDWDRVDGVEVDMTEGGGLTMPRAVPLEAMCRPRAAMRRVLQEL
Test: E. coli whole-cell metabolism, LC-MS/MS MRM m/z […] to […]
Format: cell-based
Conditions: 0.2 mM quinclorac, 24 h, 30 °C; co-expressed ATR2 reductase; putative hydroxylated product, no authentic standard

## O=C(O)c1c(Cl)ccc2cc(Cl)cnc12 [quinclorac]
  E. coli whole-cell metabolism, LC-MS/MS MRM m/z 258 to 177: identified in the culture solution of E. coli with CYP81A12, CYP81A21, and CYP81A24
